Reference: PubChem BioAssay (NCI)
Several values for one entry are separate records, joined by “and”; a condition that tells them apart may be missing. Equal values may be shown once.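 Protocol summary: plate cells (96-well), add compound at 5 concentrations, incubate 48 h, interpolate endpoints linearly. The concentration for 50% growth inhibition is given as GI50. TGI: concentration producing complete growth inhibition.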

What was measured:
Assay in all cases: inhibition of tumour cell growth, NCI panel, 48 h
UACC-62 melanoma = test system: UACC-62 melanoma
MDA-MB-435 = test system: MDA-MB-435
RPMI-8226 leukemia = test system: RPMI-8226 leukemia
SK-OV-3 ovarian = test system: SK-OV-3 ovarian
SK-MEL-5 melanoma = test system: SK-MEL-5 melanoma
K-562 leukemia = test system: K-562 leukemia
RXF 393 renal = test system: RXF 393 renal
UO-31 renal = test system: UO-31 renal
SR leukemia = test system: SR leukemia
HCC-2998 colon = test system: HCC-2998 colon
CAKI-1 renal = test system: CAKI-1 renal
COLO 205 colon = test system: COLO 205 colon
NCI-H460 lung = test system: NCI-H460 lung
ACHN renal = test system: ACHN renal
HCT-15 colon = test system: HCT-15 colon
MALME-3M melanoma = test system: MALME-3M melanoma
SK-MEL-2 melanoma = test system: SK-MEL-2 melanoma
CCRF-CEM leukemia = test system: CCRF-CEM leukemia
OVCAR-8 ovarian = test system: OVCAR-8 ovarian
EKVX NSCLC = test system: EKVX NSCLC
HOP-62 NSCLC = test system: HOP-62 NSCLC
HCT-116 colon = test system: HCT-116 colon
MCF7 breast = test system: MCF7 breast
SN12C renal = test system: SN12C renal
HL-60(TB) leukemia = test system: HL-60(TB) leukemia
U251 CNS = test system: U251 CNS
BT-549 breast = test system: BT-549 breast
T-47D breast = test system: T-47D breast
SW-620 colon = test system: SW-620 colon
IGROV1 ovarian = test system: IGROV1 ovarian
SF-539 CNS = test system: SF-539 CNS
OVCAR-4 ovarian = test system: OVCAR-4 ovarian
M14 melanoma = test system: M14 melanoma
DU-145 prostate = test system: DU-145 prostate
NCI/ADR-RES ovarian = test system: NCI/ADR-RES ovarian
KM12 colon = test system: KM12 colon
A498 renal = test system: A498 renal
A549 NSCLC = test system: A549 NSCLC
786-0 renal = test system: 786-0 renal
MOLT-4 leukemia = test system: MOLT-4 leukemia
OVCAR-3 ovarian = test system: OVCAR-3 ovarian
HT29 colon = test system: HT29 colon
NCI-H23 lung = test system: NCI-H23 lung
SF-295 CNS = test system: SF-295 CNS
LOX IMVI melanoma = test system: LOX IMVI melanoma
SK-MEL-28 melanoma = test system: SK-MEL-28 melanoma
UACC-257 melanoma = test system: UACC-257 melanoma
NCI-H226 lung = test system: NCI-H226 lung
NCI-H522 lung = test system: NCI-H522 lung
SNB-19 CNS = test system: SNB-19 CNS
SNB-75 CNS = test system: SNB-75 CNS
TK-10 renal = test system: TK-10 renal
HOP-92 NSCLC = test system: HOP-92 NSCLC
HS 578T breast = test system: HS 578T breast
OVCAR-5 ovarian = test system: OVCAR-5 ovarian
SF-268 CNS = test system: SF-268 CNS
MDA-MB-231 breast = test system: MDA-MB-231 breast
PC-3 prostate = test system: PC-3 prostate

Structure (SMILES): CC(C)n1nc(-c2ccc3oc(N)nc3c2)c2c(N)ncnc21
- GI50 (UACC-62 melanoma): < 10 nM
- TGI (UACC-62 melanoma): 31.7 nM and 49 nM
- GI50 (MDA-MB-435): < 12.5 nM and 13.8 nM
- TGI (MDA-MB-435): 403 nM and 110 nM
- GI50 (RPMI-8226 leukemia): < 10 nM
- TGI (RPMI-8226 leukemia): 1100 nM and 3680 nM
- GI50 (SK-OV-3 ovarian): < 10 nM
- TGI (SK-OV-3 ovarian): 49 nM and 54.8 nM
- GI50 (SK-MEL-5 melanoma): 17.1 nM and < 11.4 nM
- TGI (SK-MEL-5 melanoma): 143 nM and 86.5 nM
- GI50 (K-562 leukemia): 43.1 nM and 37.6 nM
- TGI (K-562 leukemia): > 100 µM
- GI50 (RXF 393 renal): < 10 nM
- TGI (RXF 393 renal): 43 nM and 53.3 nM
- GI50 (UO-31 renal): < 10 nM
- TGI (UO-31 renal): 40.2 nM and 89.8 nM
- GI50 (SR leukemia): 28.4 nM and < 11.2 nM
- TGI (SR leukemia): 3.84 µM
- GI50 (HCC-2998 colon): 24 nM and 25.9 nM
- TGI (HCC-2998 colon): 11.5 µM and 11.9 µM
- GI50 (CAKI-1 renal): < 15.7 nM and 16.1 nM
- TGI (CAKI-1 renal): 725 nM and 265 nM
- GI50 (COLO 205 colon): < 10 nM and 14.4 nM
- TGI (COLO 205 colon): 2210 nM and 1880 nM
- GI50 (NCI-H460 lung): < 10 nM
- TGI (NCI-H460 lung): 36.3 µM and 16.8 µM
- GI50 (ACHN renal): 10.5 nM and 13 nM
- TGI (ACHN renal): 1140 nM and 820 nM
- GI50 (HCT-15 colon): 12.6 nM and 16.4 nM
- TGI (HCT-15 colon): 11.3 µM and > 35.2 µM
- GI50 (MALME-3M melanoma): < 10 nM
- TGI (MALME-3M melanoma): < 10 nM and 22 nM
- GI50 (SK-MEL-2 melanoma): 19.4 nM and 15.7 nM
- TGI (SK-MEL-2 melanoma): 581 nM and 113 nM
- GI50 (CCRF-CEM leukemia): 26.5 nM and 46.7 nM
- TGI (CCRF-CEM leukemia): > 45.6 µM
- GI50 (OVCAR-8 ovarian): 24.6 nM and 21.8 nM
- TGI (OVCAR-8 ovarian): 1240 nM and 506 nM
- GI50 (EKVX NSCLC): 15.9 nM
- TGI (EKVX NSCLC): 225 nM
- GI50 (HOP-62 NSCLC): 19.8 nM and 21.2 nM
- TGI (HOP-62 NSCLC): 793 nM and 435 nM
- GI50 (HCT-116 colon): 38.7 nM and 36.1 nM
- TGI (HCT-116 colon): 15 µM
- GI50 (MCF7 breast): < 10 nM
- TGI (MCF7 breast): 2.87 µM and 4.12 µM
- GI50 (SN12C renal): < 11.4 nM and 11.3 nM
- TGI (SN12C renal): 2.69 µM and 8.69 µM
- GI50 (HL-60(TB) leukemia): 86.9 nM and 168 nM
- TGI (HL-60(TB) leukemia): 12.3 µM and 11.2 µM
- GI50 (U251 CNS): 22.9 nM and 25.5 nM
- TGI (U251 CNS): 10.2 µM and 2.44 µM
- GI50 (BT-549 breast): < 10 nM
- GI50 (T-47D breast): < 10 nM
- TGI (T-47D breast): 16 nM and 15.5 nM
- GI50 (SW-620 colon): 37 nM and 37.9 nM
- TGI (SW-620 colon): 21.1 µM and 12.6 µM
- GI50 (IGROV1 ovarian): < 10 nM
- TGI (IGROV1 ovarian): 55.4 nM and 277 nM
- GI50 (SF-539 CNS): 18.4 nM and 17.5 nM
- TGI (SF-539 CNS): 90.2 nM and 113 nM
- GI50 (OVCAR-4 ovarian): < 10 nM
- TGI (OVCAR-4 ovarian): 77 nM and 56.9 nM
- GI50 (M14 melanoma): < 10 nM
- TGI (M14 melanoma): 522 nM and 678 nM
- GI50 (DU-145 prostate): 20.3 nM and 20.8 nM
- TGI (DU-145 prostate): 11.9 µM and 6.63 µM
- GI50 (NCI/ADR-RES ovarian): 25.1 nM and 24.5 nM
- TGI (NCI/ADR-RES ovarian): 580 nM and 830 nM
- GI50 (KM12 colon): 22.2 nM and 17.9 nM
- TGI (KM12 colon): 5.01 µM and 2.24 µM
- GI50 (A498 renal): < 10 nM
- TGI (A498 renal): < 10 nM
- GI50 (A549 NSCLC): 15.6 nM and 19.1 nM
- TGI (A549 NSCLC): 2880 nM and 1030 nM
- GI50 (786-0 renal): 14.6 nM and 26.6 nM
- TGI (786-0 renal): 400 nM and 1410 nM
- GI50 (MOLT-4 leukemia): 32.5 nM and 43.8 nM
- TGI (MOLT-4 leukemia): 5.9 µM and 9.49 µM
- GI50 (OVCAR-3 ovarian): < 13 nM and 12 nM
- TGI (OVCAR-3 ovarian): 411 nM and 759 nM
- GI50 (HT29 colon): 27.2 nM
- TGI (HT29 colon): 10.8 µM and 5.32 µM
- GI50 (NCI-H23 lung): 26.8 nM and 17.6 nM
- TGI (NCI-H23 lung): 8.16 µM and 2.39 µM
- GI50 (SF-295 CNS): < 10 nM and 10.2 nM
- TGI (SF-295 CNS): 47.2 nM and 77.3 nM
- GI50 (LOX IMVI melanoma): 12.7 nM and 17.4 nM
- TGI (LOX IMVI melanoma): 1330 nM and 1640 nM
- GI50 (SK-MEL-28 melanoma): < 10.8 nM
- TGI (SK-MEL-28 melanoma): 189 nM
- GI50 (UACC-257 melanoma): < 12.3 nM and 13.7 nM
- TGI (UACC-257 melanoma): 145 nM and 121 nM
- GI50 (NCI-H226 lung): < 10 nM
- TGI (NCI-H226 lung): 371 nM and 231 nM
- GI50 (NCI-H522 lung): < 10 nM
- TGI (NCI-H522 lung): 15.3 µM and 1.76 µM
- GI50 (SNB-19 CNS): 33.6 nM and 27 nM
- TGI (SNB-19 CNS): 1940 nM and 1330 nM
- GI50 (SNB-75 CNS): < 10 nM
- TGI (SNB-75 CNS): 53.2 nM and 21.1 nM
- GI50 (TK-10 renal): < 11.3 nM and 11.2 nM
- TGI (TK-10 renal): 240 nM and 89.7 nM
- GI50 (HOP-92 NSCLC): < 10 nM
- TGI (HOP-92 NSCLC): < 10 nM
- GI50 (HS 578T breast): < 10 nM
- TGI (HS 578T breast): 32.3 nM and 51.7 nM
- GI50 (OVCAR-5 ovarian): 13.2 nM and 16.1 nM
- TGI (OVCAR-5 ovarian): 1400 nM and 2080 nM
- GI50 (SF-268 CNS): 15.1 nM and 15.4 nM
- TGI (SF-268 CNS): 2880 nM and 1850 nM
- GI50 (MDA-MB-231 breast): 16.5 nM and 21.1 nM
- TGI (MDA-MB-231 breast): 1970 nM and 1700 nM
- GI50 (PC-3 prostate): < 10 nM
- TGI (PC-3 prostate): 3.94 µM and 2.57 µM
